Results reported in patent US11491178B2, “Chitosan covalently linked with small molecule integrin antagonist for targeted delivery” (Hoffmann-La Roche Inc., priority 2012, dated 2022).
pIC50: −log10 of the molar value. Like-named read-outs stand apart in the source and are kept apart here.

Target: T1, VLA-4 (α4β1) (Homo sapiens, UniProt P05556+P13612)
T1 construct: Jurkat cells express high levels of VLA-4 on their membrane surface; host or cells: Jurkat Clone E6-1
Test: VLA-4 (α4β1) binding assay: Jurkat cell adhesion to VCAM-1-coated plates
Type: cell-based
Method: Chitosan covalently linked with small molecule α4β1 antagonists having the general structure of formula IA below were assessed for their α4β1 (VLA-4) binding affinity:
The following adhesion assay has been reported previously and used in this invention with minor modification. See U.S. Pat. Nos. 6,229,011 and 6,380,387 both of which are incorporated herein by reference in their entirety. […] Each assay was conducted in a 96-well plate with VCAM-1 used as the counter ligand for the cells (i.e., VCAM-1 was bound to the surface of the wells).
More specifically, 96-well high-binding F96 Maxisorp immuno microtiter plates (Nunc) were coated overnight with 25 ng/well of VCAM-1. […]
To assess VLA-4 inhibition by the VLA-4 targeted chitosans (from the examples), Jurkat cells (expressing high levels of VLA-4) were added to the VCAM-1-coated plates to a final concentration of 2×10^5 cells/well in 96-well plates and allowed to incubate with the test chitosans (from the examples) for 45 minutes at 37° C. After removing unbound cells by gently washing the wells with PBS, the fluorescence signal from the bound cells was read on a Tecan Safire2 microplate reader at 450 nm. Points were plotted and the IC50s of each derivatized chitosan polymer were determined by regression analysis using the linear portion of the concentration-response curve.

T1 sequence (P13612 34-1032): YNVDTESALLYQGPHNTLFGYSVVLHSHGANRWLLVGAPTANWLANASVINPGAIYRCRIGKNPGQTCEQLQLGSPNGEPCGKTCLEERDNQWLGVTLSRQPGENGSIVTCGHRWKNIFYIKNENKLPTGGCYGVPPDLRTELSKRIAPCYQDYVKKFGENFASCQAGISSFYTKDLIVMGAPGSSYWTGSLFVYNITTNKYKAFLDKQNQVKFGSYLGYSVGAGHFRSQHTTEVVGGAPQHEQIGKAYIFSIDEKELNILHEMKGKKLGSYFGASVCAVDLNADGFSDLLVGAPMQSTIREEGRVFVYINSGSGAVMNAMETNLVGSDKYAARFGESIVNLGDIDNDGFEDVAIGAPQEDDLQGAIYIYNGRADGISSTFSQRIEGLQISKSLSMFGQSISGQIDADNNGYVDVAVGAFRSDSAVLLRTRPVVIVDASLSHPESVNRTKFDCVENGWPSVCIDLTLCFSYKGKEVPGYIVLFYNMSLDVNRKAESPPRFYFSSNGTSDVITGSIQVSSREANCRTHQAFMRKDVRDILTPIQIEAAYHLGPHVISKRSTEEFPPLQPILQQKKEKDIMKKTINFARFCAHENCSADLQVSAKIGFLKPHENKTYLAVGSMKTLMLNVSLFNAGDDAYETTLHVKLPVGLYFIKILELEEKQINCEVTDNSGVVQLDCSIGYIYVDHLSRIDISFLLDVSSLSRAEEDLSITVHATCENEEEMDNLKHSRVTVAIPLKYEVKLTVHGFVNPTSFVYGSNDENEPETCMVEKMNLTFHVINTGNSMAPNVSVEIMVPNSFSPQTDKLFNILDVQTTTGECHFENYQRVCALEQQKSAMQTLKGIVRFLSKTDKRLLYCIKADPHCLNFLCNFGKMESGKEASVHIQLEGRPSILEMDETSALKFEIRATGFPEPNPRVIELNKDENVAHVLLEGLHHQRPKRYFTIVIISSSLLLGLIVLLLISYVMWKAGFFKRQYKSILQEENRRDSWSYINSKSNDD
T1 sequence (P05556 21-798): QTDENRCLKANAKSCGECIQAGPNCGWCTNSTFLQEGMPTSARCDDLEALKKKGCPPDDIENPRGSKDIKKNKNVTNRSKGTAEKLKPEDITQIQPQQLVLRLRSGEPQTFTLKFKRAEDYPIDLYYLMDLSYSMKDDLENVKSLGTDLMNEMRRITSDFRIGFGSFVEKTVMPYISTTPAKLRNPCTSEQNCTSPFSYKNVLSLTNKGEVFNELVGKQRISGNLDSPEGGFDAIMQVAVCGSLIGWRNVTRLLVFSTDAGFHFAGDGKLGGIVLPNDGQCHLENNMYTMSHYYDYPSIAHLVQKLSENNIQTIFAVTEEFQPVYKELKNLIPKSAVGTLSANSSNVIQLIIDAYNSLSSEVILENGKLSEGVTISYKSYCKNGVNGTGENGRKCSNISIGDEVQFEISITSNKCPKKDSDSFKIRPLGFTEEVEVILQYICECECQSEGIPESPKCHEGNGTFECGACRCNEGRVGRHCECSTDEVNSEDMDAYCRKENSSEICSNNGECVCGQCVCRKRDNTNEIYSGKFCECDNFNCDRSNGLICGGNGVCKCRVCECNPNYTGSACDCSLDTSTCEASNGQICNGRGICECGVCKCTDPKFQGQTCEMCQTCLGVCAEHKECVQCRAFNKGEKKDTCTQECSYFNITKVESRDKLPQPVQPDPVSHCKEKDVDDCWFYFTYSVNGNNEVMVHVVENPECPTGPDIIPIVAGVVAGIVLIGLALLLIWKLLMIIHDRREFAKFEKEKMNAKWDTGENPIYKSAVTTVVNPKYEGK

pIC50 (Jurkat cells on VCAM-1-coated plates, Mn2+ activated, 45 minutes at 37° C., Table 1, read-out: Binding IC50): 8.40
pIC50 (control compound in the Jurkat/VCAM-1 adhesion assay, read-out: IC50): ~7.92
SMILES: Cc1cccc(Cl)c1C(=O)NC(Cc1ccc(NC(=O)c2c(Cl)cccc2Cl)cc1)C(=O)O (centres unmarked) [Control (27), reference compound]
